# Results as given in paper PMC12023841, “Unlocking the Gates: A Novel Diagnostic Molecule for Quantifying Efflux Levels in Gram‐Positive Bacteria” (Advanced Healthcare Materials, 2025).
# Several values for one entry are separate records, joined by “and”; a condition that tells them apart may be missing. Equal entries are not always repeated. Entries after “also recorded” stand apart in the source; their conditions may differ. Where two headings read alike, the source gives them in different places.
# What was measured:
# [1] = test system: Staphylococcus aureus ATCC 25923 (Reference, basal); experiment: MIC, broth microdilution (CLSI); format: cell-based; details: ATCC25923
# [2] = test system: Staphylococcus aureus efflux mutants and clinical strains
# [3] = test system: SA 1199‐B (norA overexpressing); experiment: microbe, parasite or virus in culture; format: cell-based, Staphylococcus aureus; details: from Table 1
# [4] = test system: HaCaT keratinocytes cells; experiment: In-vitro cytotoxicity test, Neutral Red uptake; format: cell-based, Human
# Procedure: (§1) Method: The in-vitro cytotoxicity test assessed cell viability based on Neutral Red uptake, a dye that accumulates in lysosomes and decreases in response to membrane damage. HaCaT keratinocytes were cultured in DMEM with 10% calf serum and incubated at 37°C, 5% CO₂. Cells were seeded in 96-well plates, treated with eight concentrations of the 5a4, and incubated for 24 hours. After washing, cells were exposed to Neutral Red medium for 3 hours, followed by washing and destaining. Optical density (OD540) was measured using a fluorescence reader, and IC50 values were calculated using Phototox Version 2.0, comparing treated wells to untreated controls.^[10]
# [5] = In-vitro cytotoxicity test, Neutral Red uptake; format: cell-based, Human; details: human, HaCaT keratinocytes, 24 hours, read-out: Cell viability (% as compared to the negative control), replicates
# Procedure: as §1
# [6] = Solution‐state stability test in MH‐II broth; format: physicochemical; details: 512–1 µg mL^−1, 37 °C for a day, centrifuged
# Procedure: Before accessing the minimal inhibitory concentration (MIC), each phenazinium derivative was subjected to a solution‐state stability test. For this experiment, each derivative was solubilized in DMSO to achieve a primary stock solution (20 mg mL^−1). This stock was further diluted in MilliQ to achieve a working stock solution (10 mg mL^−1). […] The tubes were placed in an incubator at 37 °C for a day and later centrifuged at 25 000 rpm for 25 min.
# [7] = Fluorescence intensity measurement of phenazinium derivatives; format: physicochemical; details: 1 µg mL^−1
# Procedure: A stock solution of synthesized phenazinium compounds (10 mg mL^-1) was prepared in DMSO solvent. […] An aliquot (100 μL) of this working stock was then added to the black flat bottomed, half-area, 96-well microplates (CELLSTAR, Greiner Bio-One, France). The plate was then placed on a fluorescence spectrometer (Tecan, Infinite […], Lyon, France) and scanned for emission spectra (560-800 nm) at a constant excitation […].
# [8] = test system: S. epidermidis strains
# [9] = test system: HaCaT keratinocytes cells; experiment: Micronucleus assay; format: cell-based, Human
# [10] = test system: SA 1199 (Wild‐type, basal); experiment: MIC, broth microdilution (CLSI); format: cell-based; details: Staphylococcus aureus
# [11] = 0.025 µg/ml, with UVA/visible Irradiation
# [12] = 0.05 µg/ml, with UVA/visible Irradiation
# [13] = 0.1 µg/ml, with UVA/visible Irradiation
# [14] = 0.25 µg/ml, with UVA/visible Irradiation
structure (smiles),measurement,setting,value
CCCCNc1ccc2nc3cc(NCCOC)c(N)cc3[n+](CCC)c2c1 [5a4],MIC,[1],2 µg/mL
same,Efflux detection method 5a4,[2]; strain ATCC25923,Negative
same,Efflux detection method 5a4,[2]; strain ATCC25923_EtBr,Positive
same,Efflux detection method 5a4,[2]; strain BIOS-H1,Negative
same,Efflux detection method 5a4,[2]; strain BIOS-H2,Negative
same,Efflux detection method 5a4,[2]; strain BIOS-H3,Negative
same,Efflux detection method 5a4,[2]; strain BIOS-H5,Negative
same,Efflux detection method 5a4,[2]; strain BIOS-H6,Negative
same,Efflux detection method 5a4,[2]; strain BIOS-H12,Negative
same,Efflux detection method 5a4,[2]; strain BIOS-H13,Negative
same,Efflux detection method 5a4,[2]; strain BIOS-H17,Negative
same,Efflux detection method 5a4,[2]; strain BIOS-H20,Negative
same,Efflux detection method 5a4,[2]; strain BIOS-H21,Negative
same,Efflux detection method 5a4,[2]; strain BIOS-H22,Negative
same,Efflux detection method 5a4,[2]; strain BIOS-H25,Negative
same,Efflux detection method 5a4,[2]; strain BIOS-H28,Negative
same,Efflux detection method 5a4,[2]; strain BIOS-H29,Negative
same,Efflux detection method 5a4,[2]; strain BIOS-H30,Negative
same,Efflux detection method 5a4,[2]; strain BIOS-H32,Negative
same,Efflux detection method 5a4,[2]; strain BIOS-V21,Negative
same,Efflux detection method 5a4,[2]; strain BIOS-V31,Negative
same,Efflux detection method 5a4,[2]; strain BIOS-V60,Negative
same,Efflux detection method 5a4,[2]; strain BIOS-V61,Negative
same,Efflux detection method 5a4,[2]; strain BIOS-V62,Negative
same,Efflux detection method 5a4,[2]; strain BIOS-V74,Negative
same,Efflux detection method 5a4,[2]; strain BIOS-V75,Negative
same,Efflux detection method 5a4,[2]; strain BIOS-V85,Negative
same,Efflux detection method 5a4,[2]; strain BIOS-V118,Negative
same,Efflux detection method 5a4,[2]; strain BIOS-V128,Negative
same,Efflux detection method 5a4,[2]; strain BIOS-V147,Negative
same,Efflux detection method 5a4,[2]; strain BIOS-V151,Negative
same,Efflux detection method 5a4,[2]; strain BIOS-V156,Negative
same,Efflux detection method 5a4,[2]; strain BIOS-V157,Negative
same,Efflux detection method 5a4,[2]; strain BIOS-V158,Negative
same,Efflux detection method 5a4,[2]; strain BIOS-V203,Negative
same,Efflux detection method 5a4,[2]; strain BIOS-V245,Negative
same,Efflux detection method 5a4,[2]; strain BIOS-V250,Negative
same,Efflux detection method 5a4,[2]; strain BIOS-V257,Negative
same,Efflux detection method 5a4,[2]; strain BIOS-V279,Negative
same,Efflux detection method 5a4,[2]; strain BIOS-V295,Negative
same,Efflux detection method 5a4,[2]; strain SA-1199,Negative
same,Efflux detection method 5a4,[2]; strain SA-1199B,Positive
same,Efflux detection method 5a4,[2]; strain SA-K1712,Negative
same,Efflux detection method 5a4,[2]; strain SA-K1748,Positive
same,Efflux detection method 5a4,[2]; strain SA-K1758,Negative
same,Efflux detection method 5a4,[2]; strain SM 1,Positive
same,Efflux detection method 5a4,[2]; strain SM 2,Negative
same,Efflux detection method 5a4,[2]; strain SM 3,Negative
same,Efflux detection method 5a4,[2]; strain SM 4,Negative
same,Efflux detection method 5a4,[2]; strain SM 5,Negative
same,Efflux detection method 5a4,[2]; strain SM 6,Negative
same,Efflux detection method 5a4,[2]; strain SM 7,Negative
same,Efflux detection method 5a4,[2]; strain SM 8,Negative
same,"MIC difference between NorA wild‐type, overexpressing and deleted mutants",[3],fourfold or greater difference
same,cytotoxicity on HaCaT (in words),[4],dose‐dependent cytotoxicity
same,"Cell viability (% as compared to the negative control), replicates","[4]; 0.00025 µg/ml, 24 hours",98.73% and 100.16% and 98.52%
same,"Cell viability (% as compared to the negative control), replicates","[4]; 0.0005 µg/ml, 24 hours",98.86% and 96.05%
same,"Cell viability (% as compared to the negative control), replicates","[4]; 0.001 µg/ml, 24 hours",86.83% and 87.15%
same,"Cell viability (% as compared to the negative control), replicates","[4]; 0.025 µg/ml, 24 hours",80.96% and 90.16%
same,"Cell viability (% as compared to the negative control), replicates","[4]; 0.05 µg/ml, 24 hours",71.87% and 67.22%
same,"Cell viability (% as compared to the negative control), replicates","[4]; 0.1 µg/ml, 24 hours",60.91% and 61.94%
same,"Cell viability (% as compared to the negative control), replicates","[4]; 0.25 µg/ml, 24 hours",43.67% and 45.37%
same,"Cell viability (% as compared to the negative control), replicates","[4]; 0.5 µg/ml, 24 hours",36.42% and 39.37%
same,"Cell viability (% as compared to the negative control), replicates","[4]; 1 µg/ml, 24 hours",8.29% and 13.84%
same,"Cell viability (% as compared to the negative control), replicates","[4]; 2.5 µg/ml, 24 hours",7.17% and 8.13%
same,IC50,"[4]; Homo sapiens, HaCaT, Neutral Red uptake, 24 hours, read-out: IC50 (HaCaT cell viability)",0.1 to 0.25 µg/mL
same,"viability at 24 h, 0.00025 µg/ml",[5]; 0.00025 µg/ml,> 96%
same,"viability at 24 h, 0.0005 µg/ml",[5]; 0.0005 µg/ml,98.9%
same,"viability at 24 h, 0.001 µg/ml",[5]; 0.001 µg/ml,87.3%
same,"viability at 24 h, 0.025 µg/ml",[5]; 0.025 µg/ml,80%
same,"viability at 24 h, 0.05 µg/ml",[5]; 0.05 µg/ml,66.6%
same,"viability at 24 h, 0.1 µg/ml",[5]; 0.1 µg/ml,57.8%
same,"viability at 24 h, 0.25 µg/ml",[5]; 0.25 µg/ml,43.4%
same,"viability at 24 h, 0.5 µg/ml",[5]; 0.5 µg/ml,37.3%
same,"viability at 24 h, 1 µg/ml",[5]; 1 µg/ml,11.6%
same,"viability at 24 h, 2.5 µg/ml",[5]; 2.5 µg/ml,~7.91%
same,Solution state stability (concentration at which visible precipitation was observed),[6],excellent solubility and stability; also recorded: Stable
same,fluorescence intensity (rank among derivatives),[7],maximum fluorescence intensity
same,Efflux detection method 5a4,[8]; […],Negative
same,Efflux detection method 5a4,[8]; strain ATCC12228,Negative
same,Efflux detection method 5a4,[8]; strain ATCC12228_EtBr,Positive
same,Efflux detection method 5a4,[8]; strain BIOS-V24,Negative
same,Efflux detection method 5a4,[8]; strain BIOS-V282,Positive
same,genotoxicity (in words),[9],no clear genotoxicity
same,% PI (Proliferative Index),[9]; [11],99.2%
same,MNC (micronucleated cells),[9]; [11],"11 ± 1.4 per 1,000"
same,% PI (Proliferative Index),"[9]; 0.025 µg/ml, without S9 mix",99.8%
same,MNC (micronucleated cells),"[9]; 0.025 µg/ml, without S9 mix","9 ± 1.4 per 1,000"
same,% PI (Proliferative Index),[9]; [12],94.6%
same,MNC (micronucleated cells),[9]; [12],"9 ± 2.1 per 1,000"
same,% PI (Proliferative Index),"[9]; 0.05 µg/ml, without S9 mix",88.2%
same,MNC (micronucleated cells),"[9]; 0.05 µg/ml, without S9 mix","8.5 ± 0.7 per 1,000"
same,% PI (Proliferative Index),[9]; [13],92.1%
same,MNC (micronucleated cells),[9]; [13],"9.5 ± 0.7 per 1,000"
same,% PI (Proliferative Index),"[9]; 0.1 µg/ml, without S9 mix",78.5%
same,MNC (micronucleated cells),"[9]; 0.1 µg/ml, without S9 mix","11 ± 1.4 per 1,000"
same,% PI (Proliferative Index),[9]; [14],89.2%
same,MNC (micronucleated cells),[9]; [14],"11.5 ± 2.1 per 1,000"
same,% PI (Proliferative Index),"[9]; 0.25 µg/ml, without S9 mix",56.1%
same,MNC (micronucleated cells),"[9]; 0.25 µg/ml, without S9 mix","10 ± 1.4 per 1,000"
same,% PI (Proliferative Index),"[9]; 0.5 µg/ml, with UVA/visible Irradiation",TOXIC
same,% PI (Proliferative Index),"[9]; 0.5 µg/ml, without S9 mix",TOXIC
same,MNC (micronucleated cells),"[9]; 0.5 µg/ml, without S9 mix",TOXIC
same,phototoxicity (in words),[9]; UVA/visible light exposure,Slight phototoxicity
same,MIC,[10],2 µg/mL
